Data on 12 compounds can be found in ChEMBL document CHEMBL5344406, “1,2,3-Triazole-containing hybrids with potential antibacterial activity against ESKAPE pathogens” (2022).

Common to all, as to assay type: functional
For assay [1], the system named is Staphylococcus aureus. Kind of assay: Antibacterial activity against Staphylococcus aureus 209p ATCC 6538P assessed as bacterial growth inhibition incubated for 1 to 2 days by serial dilution method. Conditions: time 1-2 day.
The test system of assay [2] is Staphylococcus aureus. Kind of assay: Antibacterial activity against Staphylococcus aureus ATCC 25923 assessed as bacterial growth inhibition by broth microdilution method. Background: Dilution methods test growth across graded concentrations, often in twofold steps.
The subject of assay [3] is Escherichia coli. Kind of assay: Antibacterial activity against Escherichia coli ATCC 25922 assessed as bacterial growth inhibition by broth microdilution method.
Assay [4] has as its system Streptococcus pneumoniae. Kind of assay: Antibacterial activity against erythromycin-resistant Streptococcus pneumoniae B1 expressing ermB assessed as bacterial growth inhibition incubated for 24 hrs by CLSI based broth microdilution method.
The subject of assay [5] is Streptococcus pneumoniae. Kind of assay: Antibacterial activity against erythromycin-resistant Streptococcus pneumoniae AB11 expressing ermB/mefA assessed as bacterial growth inhibition incubated for 24 hrs by CLSI based broth microdilution method.
Assay [6] deals with Streptococcus pyogenes. Nature of the assay: Antibacterial activity against erythromycin-resistant Streptococcus pyogenes clinical isolate 2 assessed as bacterial growth inhibition incubated for 24 hrs by CLSI based broth microdilution method.
Assay [7] has as its system Staphylococcus aureus. Kind of assay: Antibacterial activity against methicillin-resistant Staphylococcus aureus ATCC 43300 assessed as bacterial growth inhibition incubated for 24 hrs by CLSI based broth microdilution method.
Assay [8] deals with Staphylococcus aureus. Kind of assay: Antibacterial activity against penicillin-resistant Staphylococcus aureus ATCC 31007 assessed as bacterial growth inhibition incubated for 24 hrs by CLSI based broth microdilution method.
Assay [9] has as its system Staphylococcus aureus. Nature of the assay: Antibacterial activity against Staphylococcus aureus ATCC 43300 assessed as bacterial growth inhibition incubated for 24 hrs by CLSI based broth dilution method.
Assay [10] deals with Staphylococcus aureus. Nature of the assay: Antibacterial activity against Staphylococcus aureus ATCC 43300 assessed as bacterial growth inhibition incubated for 24 hrs by broth microdilution method.
Assay [11] has as its system Staphylococcus aureus. Kind of assay: Antibacterial activity against Staphylococcus aureus clinical isolate AD3 assessed as bacterial growth inhibition incubated for 24 hrs by CLSI based broth dilution method.
The subject of assay [12] is Staphylococcus aureus. Nature of the assay: Antibacterial activity against Staphylococcus aureus clinical isolate AD3 assessed as bacterial growth inhibition incubated for 24 hrs by broth microdilution method.
Assay [13] relates to Staphylococcus aureus. Nature of the assay: Antibacterial activity against Staphylococcus aureus clinical isolate 144 assessed as bacterial growth inhibition incubated for 24 hrs by CLSI based broth dilution method.
In assay [14] the test system is Staphylococcus aureus. Kind of assay: Antibacterial activity against Staphylococcus aureus ATCC 29213 assessed as bacterial growth inhibition incubated for 24 hrs by CLSI based broth dilution method.
Assay [15] concerns Staphylococcus aureus. Kind of assay: Antibacterial activity against Staphylococcus aureus ATCC 29213 assessed as bacterial growth inhibition incubated for 24 hrs by broth microdilution method.
The test system of assay [16] is Staphylococcus aureus. Nature of the assay: Antibacterial activity against Staphylococcus aureus clinical isolate 144 assessed as bacterial growth inhibition incubated for 24 hrs by broth microdilution method.
The test system of assay [17] is Pseudomonas aeruginosa. Nature of the assay: Antibacterial activity against Pseudomonas aeruginosa assessed as bacterial growth inhibition by broth microdilution method.
The subject of assay [18] is Bacillus subtilis. Kind of assay: Antibacterial activity against Bacillus subtilis assessed as bacterial growth inhibition by broth microdilution method.
For assay [19], the system named is Staphylococcus aureus. Nature of the assay: Antibacterial activity against Staphylococcus aureus assessed as bacterial growth inhibition.
The subject of assay [20] is Staphylococcus aureus. Nature of the assay: Antibacterial activity against penicillin-resistant Staphylococcus aureus ATCC 31007 assessed as bacterial growth inhibition by standard dilution assay.
The subject of assay [21] is Staphylococcus aureus. Nature of the assay: Antibacterial activity against erythromycin-susceptible Staphylococcus aureus ATCC 25923 assessed as bacterial growth inhibition by standard dilution assay.
Assay [22] relates to Staphylococcus aureus. Kind of assay: Antibacterial activity against methicillin-resistant Staphylococcus aureus ATCC 43300 assessed as bacterial growth inhibition by standard dilution assay.
Assay [23] concerns Staphylococcus epidermidis. Kind of assay: Antibacterial activity against Staphylococcus epidermidis assessed as bacterial growth inhibition by serial dilution method.
The subject of assay [24] is Staphylococcus aureus. Nature of the assay: Antibacterial activity against Staphylococcus aureus assessed as bacterial growth inhibition by broth dilution method.
Assay [25] deals with Staphylococcus aureus. Nature of the assay: Antibacterial activity against multidrug-resistant Staphylococcus aureus clinical isolate assessed as bacterial growth inhibition by broth dilution method.
Assay [26] deals with Bacillus subtilis. Nature of the assay: Antibacterial activity against Bacillus subtilis assessed as bacterial growth inhibition by serial dilution method.

Converted amounts (≈) assume the structure as drawn.

One may read the MIC as the least concentration at which growth counts as inhibited. Take `COC(=O)c1cc2ccc(=O)oc2cc1-c1cn(-c2ccc(C(=O)O)cc2)nn1`: the MIC in [1] worked out at 0.31 mg/L (≈ 0.792 µM).

`Clc1ccc(Cn2cc(Cn3nnc(C4=Cc5cc(Cl)ccc5OC4)n3)nn2)c(Cl)c1`: the MIC in assay [2] and in assay [3] was 6.5 mg/L (≈ 13.7 µM) each time.

For the compound `CCCCCc1ccc(-c2cn(CC(=O)NNC(=O)O[C@H]3[C@H](C)[C@@H](O[C@H]4O[C@@H](C)C[C@@H](N(C)C)[C@@H]4O)[C@](C)(O)C[C@@H](C)CN(C)[C@H](C)C4OC(=O)O[C@@]4(C)[C@@H](CC)OC(=O)[C@@H]3C)nn2)cc1` (stereo partly drawn), the MIC in assay [4], in [5], in assay [6], in assay [7] and in assay [8] was 4 mg/L (≈ 4.3 µM) in each case.

As for `C=C[C@]1(C)C[C@@H](OC(=O)CO)C2(C)[C@H](C)CCC3(CCC(=O)[C@H]32)[C@@H](C)[C@@H]1O` (stereo partly drawn), the MIC in assay [9], in assay [10], in [11], in assay [12], in [13] and in assay [14] was 2 mg/L (≈ 5.28 µM) in each case. For the same compound, the MIC in assay [15] and in assay [16] was 2 mg/L (≈ 5.28 µM) in each case.

Turning to `C=C[C@]1(C)C[C@@H](OC(=O)Cn2cc(CN3CCN(c4ccc([N+](=O)[O-])cc4)CC3)nn2)[C@@]2(C)[C@@H]3C(=O)CC[C@@]3(CC[C@@H]2C)[C@@H](C)[C@@H]1O`, the MIC in assay [10], in [12], in [15] and in assay [16] was 0.5 mg/L (≈ 0.771 µM) throughout.

`C=CCCCCC1CC(=O)N1Cc1cn(-c2cccc([N+](=O)[O-])c2)nn1` (stereo not drawn): the MIC in assay [17] and in [18] was 1.25 mg/L (≈ 3.52 µM) in each case.

For `COc1cc2c(cc1OC)C[N+](Cc1cn(-c3ccc(C(C)(C)C)cc3)nn1)(Cc1cn(-c3ccc(C(C)(C)C)cc3)nn1)CC2.[Br-]`, the MIC in assay [19] turned out to be 4 mg/L.

Turning to `C=C[C@]1(C)C[C@@H](OC(=O)Cn2cc(CN3CCN(c4ccccc4[N+](=O)[O-])CC3)nn2)[C@@]2(C)[C@@H]3C(=O)CC[C@@]3(CC[C@@H]2C)[C@@H](C)[C@@H]1O`, the MIC in assay [10], in [12], in assay [15] and in assay [16] was 0.5 mg/L (≈ 0.771 µM) each time.

With `CC[C@H]1OC(=O)[C@H](C)[C@@H](O[C@H]2C[C@@](C)(OC)[C@@H](O)[C@H](C)O2)[C@H](C)[C@@H](O[C@@H]2O[C@H](C)C[C@H](N(C)C)[C@H]2O)[C@](C)(O)C[C@@H](C)CN(C)[C@H](C)[C@@H](O)[C@]1(C)O` [AZITHROMYCIN], the MIC in [20] was above 128 mg/L; in [4], above 256 mg/L; in assay [5] it was above 256 mg/L; in [21] it was above 128 mg/L; in assay [6], above 256 mg/L; in [7], above 256 mg/L. For the same compound, the MIC in assay [8] is above 256 mg/L; in [22] it was above 128 mg/L.

`CO/N=C(\C(=O)N[C@@H]1C(=O)N2C(C(=O)O)=C(CSc3nc(=O)c(O)nn3C)CS[C@H]12)c1csc(N)n1` [CEFTRIAXONE]: the MIC in [1] amounted to 0.97 mg/L (≈ 1.75 µM).

As for `CC[C@H]1OC(=O)[C@H](C)[C@@H](O[C@H]2C[C@@](C)(OC)[C@@H](O)[C@H](C)O2)[C@H](C)[C@@H](O[C@@H]2O[C@H](C)C[C@H](N(C)C)[C@H]2O)[C@](C)(OC)C[C@@H](C)C(=O)[C@H](C)[C@@H](O)[C@]1(C)O` [CLARITHROMYCIN], the MIC in [20], in assay [21] and in assay [22] was above 128 mg/L each time.

In the case of `CCn1cc(C(=O)O)c(=O)c2cc(F)c(N3CCNCC3)cc21` [NORFLOXACIN], the MIC amounted to 3.12 mg/L (≈ 9.77 µM) in assay [23], 7.5 mg/L (≈ 23.5 µM) in assay [24], 7.5 mg/L (≈ 23.5 µM) in [25] and 3.12 mg/L (≈ 9.77 µM) in [26].
